Measured values taken from patent publication US4507487A, “Chemical compounds” (Bristol-Myers Company, priority 1983, dated 1985).
≈ marks a conversion by molar mass, not a printed value. Where two headings read alike, the source gives them in different places.

How the values were obtained:
[1] = test system: Penicillinsensitive S. aureus; assay: MIC, two-fold serial agar dilution in Mueller-Hinton agar, group (G+)-Ia; assay type: cell-based; details: Staphylococcus aureus; (G+)-Ia, penicillin-sensitive S. aureus (5 strains); read-out: Geometric Mean of MIC
Protocol: (§1) In the primary evaluation of the compounds of this invention, the Minimum Inhibitory Concentrations (MIC's) of the compounds were determined by the two-fold serial agar dilution method in Mueller-Hinton agar against 32 strains of test organisms in six groups.

[2] = test system: Penicillinresistant S. aureus; assay: MIC, two-fold serial agar dilution in Mueller-Hinton agar, group (G+)-Ib; assay type: cell-based; details: Staphylococcus aureus, read-out: Geometric Mean of MIC
Protocol: as §1
(G+)Ib: Penicillinresistant S. aureus (5 strains)

[3] = test system: Cephalothinsensitive E. coli, Kl. pneumoniae and Pr. mirabilis; assay: MIC, two-fold serial agar dilution in Mueller-Hinton agar, group (G-)-Ia; assay type: cell-based; details: (G-)-Ia, cephalothin-sensitive E. coli (2), Kl. pneumoniae (1), Pr. mirabilis (2 strains); read-out: Geometric Mean of MIC
Protocol: as §1
(G-)Ia: Cephalothinsensitive E. coli (2 strains), Kl. pneumoniae (1
strain) and Pr. mirabilis (2 strains)

[4] = test system: Cephalothinresistant E. coli and Kl. pneumoniae; assay: MIC, two-fold serial agar dilution in Mueller-Hinton agar, group (G-)-Ib; assay type: cell-based; details: read-out: Geometric Mean of MIC
Protocol: as §1
(G-)Ib: Cephalothinresistant E. coli (3 strains) and Kl. pneumoniae (3

[5] = test system: M. morganii, Ent. cloacae and Ser. marcescens; assay: MIC, two-fold serial agar dilution in Mueller-Hinton agar, group (G-)-II; assay type: cell-based; details: read-out: Geometric Mean of MIC
Protocol: as §1
(G-)II: M. morganii (1 strain), Ent. cloacae (2 strains) and Ser.

[6] = test system: Ps. aeruginosa; assay: MIC, two-fold serial agar dilution in Mueller-Hinton agar, group (G-)-III; assay type: cell-based; details: Pseudomonas aeruginosa, Ps. aeruginosa (6 strains), read-out: Geometric Mean of MIC
Protocol: as §1

[7] = test system: E. coli A15164; assay: MIC against specific test organism; assay type: cell-based; details: Escherichia coli; E. coli A15164, cephalothin-resistant strain; read-out: Minimum Inhibitory Concentration
Protocol: as §1
(§2) The test method was as described for Table 1.

[8] = test system: E. coli Juhl; assay: MIC against specific test organism; assay type: cell-based; details: Escherichia coli, read-out: Minimum Inhibitory Concentration
Protocol: as §1, §2

[9] = test system: Ent. cloacae A9656; assay: MIC against specific test organism; assay type: cell-based; details: Enterobacter cloacae, read-out: Minimum Inhibitory Concentration
Protocol: as §1, §2

[10] = test system: K. pneumoniae A9867; assay: MIC against specific test organism; assay type: cell-based; details: Klebsiella pneumoniae; K. pneumoniae A9867, cephalothin-resistant strain; read-out: Minimum Inhibitory Concentration
Protocol: as §1, §2

[11] = test system: K. pneumoniae D11; assay: MIC against specific test organism; assay type: cell-based; details: Klebsiella pneumoniae, read-out: Minimum Inhibitory Concentration
Protocol: as §1, §2

[12] = test system: M. morganii A9553; assay: MIC against specific test organism; assay type: cell-based; details: Morganella morganii, read-out: Minimum Inhibitory Concentration
Protocol: as §1, §2

[13] = test system: Pr. mirabilis A9554; assay: MIC against specific test organism; assay type: cell-based; details: Proteus mirabilis, read-out: Minimum Inhibitory Concentration
Protocol: as §1, §2

[14] = test system: Ps. aeruginosa A15150; assay: MIC against specific test organism; assay type: cell-based; details: Pseudomonas aeruginosa, read-out: Minimum Inhibitory Concentration
Protocol: as §1, §2

[15] = test system: Ps. aeruginosa A20717; assay: MIC against specific test organism; assay type: cell-based; details: Pseudomonas aeruginosa, read-out: Minimum Inhibitory Concentration
Protocol: as §1, §2

[16] = test system: Ps. aeruginosa A9843; assay: MIC against specific test organism; assay type: cell-based; details: Pseudomonas aeruginosa, read-out: Minimum Inhibitory Concentration
Protocol: as §1, §2

[17] = test system: S. aureus BX-1633-2; assay: MIC against specific test organism; assay type: cell-based; details: Staphylococcus aureus, BX16332; S. aureus BX-1633-2, penicillin-resistant strain; read-out: Minimum Inhibitory Concentration
Protocol: as §1, §2

[18] = test system: S. aureus Smith; assay: MIC against specific test organism; assay type: cell-based; details: Staphylococcus aureus, read-out: Minimum Inhibitory Concentration
Protocol: as §1, §2

[19] = test system: Ser. marcescens A20019; assay: MIC against specific test organism; assay type: cell-based; details: Serratia marcescens, read-out: Minimum Inhibitory Concentration
Protocol: as §1, §2

[20] = Mouse blood levels after single intramuscular injection; assay type: in vivo, mice; details: for concentration at 10 min / concentration at 20 min / concentration at 0.5 h / concentration at 40 min / concentration at 50 min / concentration at 1 h / concentration at 1.5 h / concentration at 2 h: read-out: Mouse Blood Level; for concentration at 0.5 h: 30 minutes; for concentration at 1 h: 60 minutes; for concentration at 1.5 h: 90 minutes; for concentration at 2 h: 120 minutes
Protocol: The absorption of some of the preferred compounds were determined in mice following a single intramuscular injection of the test compound (dissolved in 0.1M phosphate buffer; pH 7) at a dosage of 10, 20 or 40 mg/kg. Blood samples were collected from the orbital sinuses into heparinized capillary tubes and assayed in Nutrient Agar (pH 6.6) using E. coli Ess-22-31 as the test organism. The blood levels at various time intervals, the half-life values (t1/2) and the areas under the curve (AUC) are shown in Table 3.

CSc1scc[n+]1CC1=C(C(=O)[O-])N2C(=O)C(NC(=O)/C(=N\OC3(C(=O)O)CCC3)c3csc(N)n3)[C@H]2SC1 (stereo partly shown) [Example 2, 7-[(Z)-2-(2-Aminothiazol-4-yl)-2-(1-carboxycyclobut-1-oxyimino)acetamido]-3-(2-methylthiothiazolio)methyl-3-cephem-4-carboxylate]
MIC [1]: 0.92 µg/mL (≈ 1.51 µM)
MIC [2]: 2.7 µg/mL (≈ 4.42 µM)
MIC [3]: 0.025 µg/mL (≈ 0.0409 µM)
MIC [4]: 0.4 µg/mL (≈ 0.655 µM)
MIC ([5]; (G-)-II, M. morganii (1), Ent. cloacae (2), Ser. marcescens (2 strains)): 0.2 µg/mL (≈ 0.327 µM)
MIC [6]: 1.8 µg/mL (≈ 2.95 µM)
MIC [7]: 0.4 µg/mL (≈ 0.655 µM)
MIC [8]: 0.1 µg/mL (≈ 0.164 µM)
MIC [9]: 0.05 µg/mL (≈ 0.0819 µM)
MIC [10]: 3.1 µg/mL (≈ 5.08 µM)
MIC [11]: 0.05 µg/mL (≈ 0.0819 µM)
MIC [12]: 0.2 µg/mL (≈ 0.327 µM)
MIC [13]: 0.025 µg/mL (≈ 0.0409 µM)
MIC [14]: 0.8 µg/mL (≈ 1.31 µM)
MIC [15]: 6.3 µg/mL (≈ 10.3 µM)
MIC [16]: 1.6 µg/mL (≈ 2.62 µM)
MIC [17]: 3.1 µg/mL (≈ 5.08 µM)
MIC [18]: 1.6 µg/mL (≈ 2.62 µM)
MIC [19]: 0.1 µg/mL (≈ 0.164 µM)
AUC ([20]; 10 mg/kg im): 3600 ng·h/mL
half-life ([20]; 10 mg/kg im): 17 min
concentration at 10 min ([20]; 10 mg/kg im): 8400 ng/mL
concentration at 20 min ([20]; 10 mg/kg im): 5500 ng/mL
concentration at 0.5 h ([20]; 10 mg/kg im): 3700 ng/mL
concentration at 40 min ([20]; 10 mg/kg im): < 1600 ng/mL
AUC ([20]; 20 mg/kg im): 9000 ng·h/mL
half-life ([20]; 20 mg/kg im): 11 min
concentration at 10 min ([20]; 20 mg/kg im): 22000 ng/mL
concentration at 20 min ([20]; 20 mg/kg im): 15000 ng/mL
concentration at 0.5 h ([20]; 20 mg/kg im): 8600 ng/mL
concentration at 40 min ([20]; 20 mg/kg im): 5700 ng/mL
concentration at 50 min ([20]; 20 mg/kg im): 2400 ng/mL
concentration at 1 h ([20]; 20 mg/kg im): < 1600 ng/mL
AUC ([20]; 40 mg/kg im): 16000 ng·h/mL
half-life ([20]; 40 mg/kg im): 11 min
concentration at 10 min ([20]; 40 mg/kg im): 43000 ng/mL
concentration at 20 min ([20]; 40 mg/kg im): 27000 ng/mL
concentration at 0.5 h ([20]; 40 mg/kg im): 14000 ng/mL
concentration at 40 min ([20]; 40 mg/kg im): 7500 ng/mL
concentration at 50 min ([20]; 40 mg/kg im): 3800 ng/mL
concentration at 1 h ([20]; 40 mg/kg im): 2300 ng/mL
concentration at 1.5 h ([20]; 40 mg/kg im): < 1600 ng/mL

CO/N=C(\C(=O)NC1C(=O)N2C(C(=O)[O-])=C(C[n+]3ccsc3SC)CS[C@H]12)c1csc(N)n1 (stereo partly shown) [Example 3, 7-[(Z)-2-(2-Aminothiazol-4-yl)-2-(methoxyimino)acetamido]-3-(2-methylthiothiazolio)methyl-3-cephem-4-carboxylate]
MIC [1]: 0.23 µg/mL (≈ 0.437 µM)
MIC [2]: 0.8 µg/mL (≈ 1.52 µM)
MIC [3]: 0.022 µg/mL (≈ 0.0418 µM)
MIC [4]: 0.15 µg/mL (≈ 0.285 µM)
MIC [5]: 0.14 µg/mL (≈ 0.266 µM)
MIC [6]: 2 µg/mL (≈ 3.8 µM)
MIC [7]: 0.1 µg/mL (≈ 0.19 µM)
MIC [8]: 0.025 µg/mL (≈ 0.0475 µM)
MIC [9]: 0.05 µg/mL (≈ 0.0949 µM)
MIC [10]: 0.8 µg/mL (≈ 1.52 µM)
MIC [11]: 0.025 µg/mL (≈ 0.0475 µM)
MIC [12]: 0.2 µg/mL (≈ 0.38 µM)
MIC [13]: 0.05 µg/mL (≈ 0.0949 µM)
MIC [14]: 0.8 µg/mL (≈ 1.52 µM)
MIC [15]: 6.3 µg/mL (≈ 12 µM)
MIC [16]: 3.1 µg/mL (≈ 5.89 µM)
MIC [17]: 0.8 µg/mL (≈ 1.52 µM)
MIC [18]: 0.4 µg/mL (≈ 0.76 µM)
MIC [19]: 0.025 µg/mL (≈ 0.0475 µM)
AUC ([20]; 10 mg/kg im): 18000 ng·h/mL
half-life ([20]; 10 mg/kg im): 47 min
concentration at 10 min ([20]; 10 mg/kg im): 14000 ng/mL
concentration at 20 min ([20]; 10 mg/kg im): 14000 ng/mL
concentration at 0.5 h ([20]; 10 mg/kg im): 12000 ng/mL
concentration at 40 min ([20]; 10 mg/kg im): 10000 ng/mL
concentration at 50 min ([20]; 10 mg/kg im): 9800 ng/mL
concentration at 1 h ([20]; 10 mg/kg im): 6800 ng/mL
concentration at 1.5 h ([20]; 10 mg/kg im): 5200 ng/mL
concentration at 2 h ([20]; 10 mg/kg im): 3200 ng/mL
AUC ([20]; 20 mg/kg im): 29000 ng·h/mL
half-life ([20]; 20 mg/kg im): 46 min
concentration at 10 min ([20]; 20 mg/kg im): 24000 ng/mL
concentration at 20 min ([20]; 20 mg/kg im): 22000 ng/mL
concentration at 0.5 h ([20]; 20 mg/kg im): 20000 ng/mL
concentration at 40 min ([20]; 20 mg/kg im): 17000 ng/mL
concentration at 50 min ([20]; 20 mg/kg im): 13000 ng/mL
concentration at 1 h ([20]; 20 mg/kg im): 11000 ng/mL
concentration at 1.5 h ([20]; 20 mg/kg im): 9500 ng/mL
concentration at 2 h ([20]; 20 mg/kg im): 4500 ng/mL
AUC ([20]; 40 mg/kg im): 60000 ng·h/mL
half-life ([20]; 40 mg/kg im): 54 min
concentration at 10 min ([20]; 40 mg/kg im): 48000 ng/mL
concentration at 20 min ([20]; 40 mg/kg im): 36000 ng/mL
concentration at 0.5 h ([20]; 40 mg/kg im): 32000 ng/mL
concentration at 40 min ([20]; 40 mg/kg im): 32000 ng/mL
concentration at 50 min ([20]; 40 mg/kg im): 24000 ng/mL
concentration at 1 h ([20]; 40 mg/kg im): 20000 ng/mL
concentration at 1.5 h ([20]; 40 mg/kg im): 15000 ng/mL
concentration at 2 h ([20]; 40 mg/kg im): 10000 ng/mL
